According to US20250204555A1, “FEED AND METHODS FOR CONTROLLING INTESTINAL TRACT PARASITIC WORM INFECTIONS IN MAMMALS” (In the Bowl Animal Health, priority 2022, published 2025):

Key:
Format in all cases: in vivo
Toxocara canis [1] = assay: Efficacy of fenbendazole per os to dogs against Toxocara canis infections (fecal egg counts); conditions: oral liquid formulation, 0.5, 1.0 or 1.5 mg/kg daily Days 0-52 (at least treatment groups 2-4), ~250 T. canis eggs on Day 0, expected by the end of the study period
Description: Efficacy of Fenbendazole Administered per os, i.e. by Mouth, to Dogs for the Treatment and Control of Toxocara canis Infections. Methods: A pool of dogs are to be preliminarily examined to ensure suitability for the example. Dogs must be within normal weight ranges for breed, in good health with no known history of serious disease and neither pregnant nor lactating. Between Day-6 and Day-3, a fecal examination may be performed to confirm the absence of pre-existing infection by any nematode species. Dogs exposed to an anthelmintic within 30 days prior to Day-7 are to be excluded. 20 eligible dogs are to be weighed on Day-2 or Day-1 and randomly assigned to 1 of 5 groups by weight (1 control group and 4 treatment groups). Dogs are to be housed indoors to help prevent naturally occurring parasitic worm infections. Dogs may be pair housed, if compatible, or individually housed until allocation to treatment groups on Day 0. Thereafter, the dogs are to be housed individually. Dogs are to be fed a standard commercially available dog food at the recommended rates and should be allowed access to potable water ad libitum. Each dog in a treatment group (test groups 2-5) is to receive by mouth a liquid formulation of fenbendazole. The dosage is to be administered to the dogs on each of days 0-52 according to test groups, see TABLE 5. [table] […]

Ancylostoma caninum = assay: Efficacy of monepantel per os to dogs against Ancylostoma caninum (fecal egg counts); conditions: oral liquid formulation, 0.25 or 0.5 mg/kg daily Days 0-22, ~300 A. caninum larvae on Day 0, expected within approximately 2 weeks
Description: Efficacy of Monepantel Administered per os, i.e. by Mouth, to Dogs for the Treatment and Control of Ancylostoma caninum. Methods: A pool of 12 dogs are to be preliminarily examined to ensure suitability for the example. Dogs must be within normal weight ranges for breed, in good health with no known history of serious disease and neither pregnant nor lactating. Between Day-7 and Day-3, a fecal examination may be performed to confirm the absence of pre-existing infection by any nematode species. Dogs exposed to an anthelmintic within 30 days prior to Day-7 are to be excluded. Dogs are to be weighed on Day-2 and randomly assigned to 1 of 3 groups by weight (1 control group and 2 treatment groups). Dogs may be pair housed, if compatible, or individually housed until allocation to treatment groups on Day 0. Thereafter, the dogs are to be housed individually. Dogs are to be fed a standard commercially available dog food at the recommended rates and should be allowed access to potable water ad libitum. Each dog in a treatment group (test groups 2-3) is to receive by mouth a liquid formulation of monepantel. The dosage is to be administered to the dogs on each of days 0-22 according to test groups, see TABLE 3. [table] Dogs in the control group are not to receive any anthelmintics or any other worm control treatment. Dogs are to be fasted overnight. […]

Toxocara canis [2] = assay: Efficacy of monepantel per os to dogs against Toxocara canis (fecal egg counts); conditions: oral liquid formulation, 0.125, 0.25 or 0.5 mg/kg daily Days 0-52, ~250 T. canis eggs on Day 0, all treatment groups, expected by the end of the study period
Description: Efficacy of Monepantel Administered per os, i.e. by Mouth, to Dogs for the Treatment and Control of Toxocara canis.
Methods: A pool of dogs are to be preliminarily examined to ensure suitability for the example. Dogs must be within normal weight ranges for breed, in good health with no known history of serious disease and neither pregnant nor lactating. On Day-6, a fecal examination may be performed to confirm the absence of pre-existing infection by any nematode species. Dogs exposed to an anthelmintic within 30 days prior to Day-7 are to be excluded.
16 eligible dogs are to be weighed on Day-1 and randomly assigned to 1 of 4 groups by weight (1 control group and 3 treatment groups).
Dogs are to be housed indoors to help prevent naturally occurring parasitic worm infections. Dogs may be pair housed, if compatible, or individually housed until allocation to treatment groups on Day 0. Thereafter, the dogs are to be housed individually. Dogs are to be fed a standard commercially available dog food at the recommended rates and should be allowed access to potable water ad libitum.
Each dog in a treatment group (test groups 2-4) is to receive by mouth a liquid formulation of monepantel. The dosage is to be administered to the dogs on each of days 0-52 according to test groups, see TABLE 4.
Dogs in the control group are not to receive any anthelmintics or any other worm control treatment. […]

With COC(=O)Nc1nc2ccc(Sc3ccccc3)cc2[nH]1 [Fenbendazole, methyl N-(6-phenylsulfanyl-1H-benzimidazol-2-yl) carbamate] the “efficacy (fecal egg count reduction)” value (Toxocara canis [1]) was 100%.
In the case of C[C@](C#N)(COc1cc(C#N)ccc1C(F)(F)F)NC(=O)c1ccc(SC(F)(F)F)cc1 [Monepantel, N-[(2S)-2-cyano-1-[5-cyano-2-(trifluoromethyl)phenoxy]propan-2-yl]-4-(trifluoromethylsulfanyl)benzamide], the “Percent reduction in fecal egg counts” value (Ancylostoma caninum) is reported as 100% and the “efficacy (fecal egg count reduction)” value (Toxocara canis [2]) is reported as 100%.
